# Source: patent publication US20120009152A1, “NITRIC OXIDE DONORS FOR TREATMENT OF DISEASE AND INJURY” (priority 2002, published 2012)
# Tests used:
# [1] = system: cerebral vessels in the ischemic boundary regions; experiment: Angiogenesis in ischemic brain after embolic MCA occlusion (vascular perimeters, BrdU endothelial cells, three dimensional vessel analysis); format: in vivo, rat
# Protocol: Male Wistar rats weighing 320-380 gm were employed. The middle cerebral artery (MCA) was occluded by placement of an embolus at the origin of the MCA.
# (§1) DETANONOate (0.4 mg/kg) was intravenously administered to rats (n=8) 24 hours after stroke and daily (i.p) for an additional 6 consecutive days. Ischemic rats (n=8) treated with the same volume of decayed DETANONOate were used as a control group. All rats were sacrificed 14 days after stroke. 2) To examine the effect of exogenous NO on brain levels of VEGF, DETANONOate (0.4 mg/kg) or saline was administered to ischemic rats (n=3 for each group) with the identical paradigm described in Protocol 1. These rats were sacrificed 7 days after stroke. […] Rats were sacrificed 14 days after stroke.
# Bromodeoxyuridine (BrdU, Sigma Chemical), the thymidine analog that is incorporated into the DNA of dividing cells during S-phase, was used for mitotic labeling. BrdU (50 mg/kg) was […] (i.p) daily for 13 consecutive days into ischemic rats starting 1 day after MCA occlusion.
# To examine neovascularization in ischemic brain, fluorescein isothiocyanate (FITC) dextran (2×10^6 molecular weight, Sigma, St. Louis, Mo.; 0.1 ml of 50 mg/ml) was administered intravenously to the ischemic rats subjected to 14 days of MCAo. Ti brains were rapidly removed from the severed heads and placed in 4% of paraformaldehyde at 4° C. for 48 hours. Coronal sections (100 μm) were cut on a vibratome. The vibratome sections were analyzed with a Bio-Rad MRC 1024 (argon and krypton) laser-scanning confocal imaging system mounted onto a Zeiss microscope (Bio-Rad; Cambridge, Mass.), as previously described. Seven 100 μm thick vibratome coronal sections at 2 mm intervals from bregma 5.2 mm to bregma −8.8 mm from each animal injected with FITC-dextran were selected. Eight brain regions in the ipsilateral and contralateral hemispheres were selected within a reference coronal section (interaural 8.8 mm, bregma 0.8 mm). These regions were scanned in 512×512 pixel (276×276 μm^2) format in the x-y direction using a 4× frame-scan average and twenty-five optical sections along the z-axis with a 1 μm step-size were acquired under a 40× objective. Vascular branch points, segment lengths and diameters were measured in three dimensions using software developed in the laboratory. Image acquisition and analysis were performed blindly.
# For BrdU immunostaining, DNA was first denatured by incubating brain sections (6 μm) in 50% formamide 2×SSC at 65° C. for 2 hours and then in 2N HCl at 37° C. for 30 minutes. Sections were then rinsed with tris buffer and treated with 1% of H2O2 to block endogenous peroxidase. Sections were incubated with a mouse monoclonal antibody (mAb) against BrdU (1:1000, Boehringer Mannheim, Indianapolis, Ind. overnight and incubated with biotinylated secondary antibody (1:200, Vector, Burlingame, Calif.) for 1 hour.
# To quantify BrdU immunoreactive endothelial cells, numbers of endothelial cells and numbers of BrdU immunoreactive endothelial cells in ten enlarged vessels adjacent to the ischemic lesion were counted from each rat. Numbers of endothelial cells and BrdU immunoreactive endothelial cells in the ten vessels of the contralateral homologous area were also counted. Data are presented as percentage of BrdU immunoreactive endothelial cells to total endothelial cells in ten enlarged vessels from each rat.
# Vascular perimeters were measured on coronal sections immunostained with an anti-von Willebrand factor antibody as previously described.
# rat VEGF = experiment: ELISA for VEGF in ischemic boundary regions; format: in vivo; conditions: control 13.4±1.5
# Protocol: as §1
# The ischemic boundary regions and homologous tissue in the contralateral hemisphere were dissected. The tissue was homogenized and centrifuged at 10,000 g for 20 min at 4° C. and the supernatant was collected. ELISA for VEGF in the supernatants was performed using a commercially available kit specific for rat VEGF (R&D, systems) according to the manufacture's instruction.
# [2] = system: Mouse brain-derived endothelial cells; experiment: Capillary-like tube formation assay; format: cell-based
# Protocol: An in vitro angiogenesis assay was performed. Briefly, 0.8 ml of growth factor reduced Matrigel (Becton Dickinson) was added to pre-chilled 35 mm culture dishes and allowed to polymerize at 37° C. for 2 to 5 hours. […] For quantitative measurements of capillary tube formation, three random areas of Matrigel dishes were imaged and the length of continuous cords of three or more cells was measured.
# [3] = DETANONOate 0.4 mg/kg, three dimensional analysis
SMILES,"angiogenesis in ischemic brain ([1]; Sildenafil 2 mg/kg fed from 24 h after stroke, daily 7 days, 14 days after stroke)","VEGF levels in the ischemic boundary (rat VEGF; Sildenafil treated ischemic rats, n=3 per group) [pg/mL]",capillary-like tube formation ([2]; Sildenafil 100 to 500 nM),"vessel enlargement in the contralateral hemisphere ([1]; DETANONOate 0.4 mg/kg from 24 h after stroke for 7 days, 14 days after stroke)","vascular perimeters around the ischemic lesion ([1]; DETANONOate 0.4 mg/kg from 24 h after stroke for 7 days, 14 days after stroke, vs decayed DETANONOate control)","numbers of proliferated (BrdU immunoreactive) endothelial cells ([1]; DETANONOate 0.4 mg/kg from 24 h after stroke for 7 days, vs control)","capillary segment diameters [1, 3]","capillary segment lengths [1, 3]","numbers of capillary segments in the boundary regions of ischemia ([1]; DETANONOate 0.4 mg/kg, three dimensional analysis, vs decayed DETANONOate)","VEGF levels in the ischemic boundary regions (rat VEGF; DETANONOate 0.4 mg/kg from 24 h after stroke, 7 days after stroke, n=3) [pg/mL]","capillary-like tube formation ([2]; DETANONOate 0.2 μM, 3 hours, vs DMEM only)"
CCCc1nn(C)c2c(=O)[nH]c(-c3cc(S(=O)(=O)N4CCN(C)CC4)ccc3OCC)nc12 [Sildenafil],significant increase of angiogenesis,34.4 ± 2.9,concentration-dependent capillary-like tube formation,–,–,–,–,–,–,–,–
"NCCN(CCN)/[N+]([O-])=N/O [DETANONOate, (Z)-1-[N-(2-aminoethyl)-N-(2-ammonioethyl)aminio]diazen-1-ium-1,2-diolate]",–,–,–,did not enlarge vessels in the contralateral hemisphere,significantly (P<0.01) enlarged vascular perimeters,significantly (p<0.05) increased,significantly smaller diameters,shorter segment lengths,significantly (p<0.05) increased the numbers of capillary segments,28.9 ± 1.0,significant increase in capillary-like tube formation
